Experimental data published in US8030043B2, “β-galactoside-α2,3-sialyltransferase, a gene encoding thereof, and a method for producing thereof” (Japan Tobacco Inc., priority 2005, dated 2011).

Key:
[1] = system: ISH467-N2C0 recombinant β-galactoside-α2,3-sialyltransferase; experiment: Acceptor substrate specificity of recombinant β-galactoside-α2,3-sialyltransferase (mono-, di-, trisaccharides); format: biochemical, Photobacterium phosphoreum
Description: (§1) Cell homogenates prepared from E. coli cells introduced with the third clone of ISH467-N2C0, the first clone of ISH224-N1C0 and the first clone of FAJ-N1C0 were each purified by ion exchange chromatography and hydroxyapatite chromatography to give an electrophoretically single band. The thus purified β-galactoside-α2,3-sialyltransferases were used in the following experiment in order to examine the presence or absence of sialyltransferase activity toward various monosaccharides, disaccharides and trisaccharides.
(§2) A reaction solution (24 μl) was prepared to contain CMP-^14C-NeuAc-containing CMP-NeuAc as a glycosyl donor substrate ([…], final concentration in the reaction solution: […]), any of various glycosyl acceptor substrates dissolved in 20 mM cacodylate buffer (pH 5.0) (1 μmol, final concentration in the reaction solution: 42 mM), sialyltransferase (in an amount as indicated in the footnotes of the tables below) and NaCl (final concentration in the reaction solution: 500 mM), and reacted under conditions as indicated in the footnotes of the tables below. The monosaccharides used as glycosyl acceptor substrates were the following 10 types: methyl-α-D-galactopyranoside (Gal-α-OMe), methyl-(β-D-galactopyranoside (Gal-β-OMe), methyl-α-D-glucopyranoside (Glc-α-OMe), methyl-β-D-glucopyranoside (Glc-β-OMe), methyl-α-D-mannopyranoside (Man-α-OMe), methyl-β-D-mannopyranoside (Man-β-OMe), methyl-α-D-fucopyranoside (Fuc-α-OMe), methyl-β-D-fucopyranoside (Fuc-β-OMe), N-acetylgalactosamine (GalNAc), and N-acetylglucosamine ([…]). The disaccharides used were the following 5 types: lactose (Gal-β1,4-Glc), N-acetyllactosamine (Gal-β1,4-GlcNAc), methyl-β-D-galactopyranosyl-β1,3-N-acetylglucosaminide (Gal-β1,3-GlcNAc-β-OMe), methyl-α-D-galactopyranosyl-α1,3-galactopyranoside (Gal-α-1,3-Gal-α-OMe), and methyl-β-D-galactopyranosyl-β1,3-galactopyranoside (Gal-β1,3-Gal-β-OMe). The trisaccharide used was 2′-fucosyllactose (Fuc-α1,2-Galβ1,4-Glc). It should be noted that the final concentration was set to 8.4 mM for the sugar chains shown in Table 18, i.e., methyl-α-D-galactopyranosyl-α1,3-galactopyranoside (Gal-α1,3-Gal-α-OMe), methyl-β-D-galactopyranosyl-β1,3-galactopyranoside (Gal-β1,3-Gal-β-OMe) and 2′-fucosyllactose (Fuc-α1,2-Gal-β1,4-Glc).
(§3) After completion of the enzymatic reaction, 1.98 ml of 5 mM phosphate buffer (pH 6.8) was added to the reaction solution to stop the enzymatic reaction. Then, the enzymatic reaction solution was diluted with 5 mM phosphate buffer (pH 6.8) and applied in a volume of 2 ml to a AG1−×2 Resin (PO4^3− form, 0.2×2 cm) column. This column was prepared as follows: AG1-x 2 Resin (OH^− form, BIO-RAD) was suspended in 1 M phosphate buffer (pH 6.8), and after 30 minutes, the resin was washed with distilled water and then suspended in distilled water. The eluate (0 to 2 ml) from this column was measured for its radioactivity. The eluate from this column contains the unreacted glycosyl acceptor substrate and the ^14C-NeuAc (N-acetylneuraminic acid)-bound reaction product which was generated by the reaction, but unreacted CMP-14C-NeuAc is still retained on the column. Thus, the radioactivity of ^14C from each sialic acid-containing sugar chain generated as a result of the enzymatic reaction arises exclusively from the reaction product, so that the radioactivity of this fraction can be used to calculate the enzyme activity.
(§4) In the manner described above, the radioactivity of NeuAc transferred to each glycosyl acceptor substrate was measured to calculate the amount of transferred sialic acid.

[2] = system: ISH224-N1C0 recombinant β-galactoside-α2,3-sialyltransferase; experiment: as above; format: biochemical, Photobacterium sp.
Description: as §1, §2, §3, §4

[3] = system: FAJ-N1C0 recombinant β-galactoside-α2,3-sialyltransferase; experiment: Acceptor substrate specificity of recombinant β-galactoside-α2,3-sialyltransferase (mono-, disaccharides); format: biochemical, Vibrio sp.; set-up: FAJ-N1C0 Sialyltransferase activity Relative activity (%): tested at 42 mM; settings: 20° C., 14 hours; for FAJ-N1C0 Sialyltransferase activity: Table 16: 1 μmol acceptor, pH 5.0, about 2.5 mU enzyme; for FAJ-N1C0 Sialyltransferase activity Relative activity (%): Table 16: activity toward lactose set to 100
Description: as §1, §2, §3, §4

[4] = system: α2,3-sialyltransferase derived from strain JT-ISH-467; experiment: Sialic acid transfer to monosaccharides and disaccharides by partially purified α2,3-sialyltransferase (CMP-14C-NeuAc donor, radioactivity of column eluate); format: biochemical, Photobacterium phosphoreum; settings: 25° C., 4 hours, acceptor 10 μmol (200 mM), CMP-14C-NeuAc 400 nmol, sialyltransferase 0.13 mU, NaCl 500 mM
Method: A cell homogenate prepared from the strain JT-ISH-467 was partially purified by ion exchange chromatography, hydroxyapatite chromatography, and gel filtration chromatography. The thus partially purified α2,3-sialyltransferase was used in the following experiment in order to confirm the transfer of sialic acid to various monosaccharides and disaccharides.
The enzymatic reaction was carried out at 25° C. for 4 hours in a reaction solution (24 μl) prepared to contain CMP-^14C-NeuAc as a glycosyl donor substrate (400 nmol (15600 cpm), final concentration in the reaction solution: 16.6 mM), any of various glycosyl acceptor substrates (10 μmol, final concentration in the reaction solution: 200 mM), sialyltransferase (0.13 mU) and NaCl (final concentration in the reaction solution: 500 mM). The monosaccharides and disaccharides used as glycosyl acceptor substrates were the following 6 substances: methyl-α-D-galactopyranoside (Gal-α-OMe), methyl-β-D-galactopyranoside (Gal-β-OMe), N-acetylgalactosamine (GalNAc), lactose (Gal-β1,4-Glc), N-acetyllactosamine (Gal-β1,4-GlcNAc), and methyl-β-D-galactopyranosyl-β-1,3-N-acetylglucosaminide (Gal-β1,3-GlcNAc-β-OMe).
as §3, with “AG1-×2” for “AG1−×2”, “AG1-×2” for “AG1-x 2”, “CMP-^14C-NeuAc” for “CMP-14C-NeuAc”
as §4

[5] = Table 16: 1 μmol acceptor, pH 5.0, about 2.5 mU enzyme, 20° C., 14 hours
[6] = Table 16: activity toward lactose set to 100, 20° C., 14 hours
[7] = Table 17: 1 μmol acceptor, pH 5.0, 2.3 mU per reaction, 30° C., 0.5 minutes or 2 minutes
[8] = Table 17: activity toward lactose set to 100, 30° C., 0.5 minutes or 2 minutes
[9] = Table 17: 1 μmol acceptor, pH 5.0, 1.0 mU per reaction, 30° C., 0.5 minutes or 2 minutes
[10] = Table 18: 0.2 μmol acceptor (8.4 mM), pH 5.0, 23 mU per reaction, 30° C., 2 minutes
[11] = Table 18: activity toward lactose set to 100, 0.2 μmol acceptor, 30° C., 2 minutes
[12] = Table 18: 0.2 μmol acceptor (8.4 mM), pH 5.0, 1.0 mU per reaction, 30° C., 2 minutes

Row | SMILES | ISH467-N2C0 Sialyltransferase activity [1, 5] [nmol/min] | ISH467-N2C0 Sialyltransferase activity Relative activity (%) [1, 6] [%] | ISH467-N2C0 Sialyltransferase activity [1, 7] [nmol/min] | ISH467-N2C0 Sialyltransferase activity Relative activity (%) [1, 8] [%] | ISH224-N1C0 Sialyltransferase activity [2, 5] [nmol/min] | ISH224-N1C0 Sialyltransferase activity Relative activity (%) [2, 6] [%] | ISH224-N1C0 Sialyltransferase activity [2, 9] [nmol/min] | ISH224-N1C0 Sialyltransferase activity Relative activity (%) [2, 8] [%] | FAJ-N1C0 Sialyltransferase activity [3] [nmol/min] | FAJ-N1C0 Sialyltransferase activity Relative activity (%) [3] [%] | Amount of transferred sialic acid [4] | Amount of transferred sialic acid ([4]; listed as Gal-β1,4-GlcNAc) [nmol] | ISH467-N2C0 Sialyltransferase activity [1, 10] [nmol/min] | ISH467-N2C0 Sialyltransferase activity Relative activity (%) [1, 11] [%] | ISH224-N1C0 Sialyltransferase activity [2, 12] [nmol/min] | ISH224-N1C0 Sialyltransferase activity Relative activity (%) [2, 11] [%]
1 | CC(=O)N[C@H]1C(O)O[C@H](CO)[C@@H](O[C@@H]2O[C@H](CO)[C@H](O)[C@H](O)[C@H]2O)[C@@H]1O (stereo partly drawn) [Lactosamine, N-acetyllactosamine] | 9.2 | 118 | 2.36 | 103 | 9.7 | 115 | 0.99 | 96 | 9.6 | 127 | highest in amount of transferred sialic acid | 74.9 | – | – | – | –
2 | CO[C@H]1O[C@H](C)[C@H](O)[C@H](O)[C@H]1O [Methylαfucopyranoside, methyl-α-D-fucopyranoside] | – | – | 1.13 | 49 | – | – | 0.70 | 68 | – | – | – | – | – | – | – | –
3 | CO[C@H]1O[C@H](CO)[C@@H](O)[C@H](O)[C@H]1O [Methylαglucopyranoside, methyl-α-D-glucopyranoside] | 6.2 | 79 | 1.11 | 48 | 4.3 | 51 | 0.70 | 68 | 4.7 | 62 | – | – | – | – | – | –
4 | CO[C@H]1O[C@H](CO)[C@@H](O)[C@H](O)[C@@H]1O [Methylαmannopyranoside, methyl-α-D-mannopyranoside] | 5.5 | 71 | 1.38 | 60 | 4.7 | 56 | 1.11 | 108 | 4.3 | 57 | – | – | – | – | – | –
5 | CO[C@@H]1O[C@H](C)[C@H](O)[C@H](O)[C@H]1O [Methylβfucopyranoside, methyl-β-D-fucopyranoside] | – | – | 0.97 | 42 | – | – | 0.50 | 48 | – | – | – | – | – | – | – | –
6 | CO[C@@H]1O[C@H](CO)[C@@H](O)[C@H](O)[C@H]1O [Methylβglucopyranoside, methyl-β-D-glucopyranoside] | 3.6 | 46 | 0.76 | 33 | 3.7 | 43 | 0.27 | 26 | 4.0 | 52 | – | – | – | – | – | –
7 | CO[C@@H]1O[C@H](CO)[C@@H](O)[C@H](O)[C@@H]1O [Methylβmannopyranoside, methyl-β-D-mannopyranoside] | – | – | 1.45 | 63 | – | – | 1.03 | 100 | – | – | – | – | – | – | – | –
8 | CC(=O)N[C@H]1C(O)O[C@H](CO)[C@@H](O)[C@@H]1O (stereo partly drawn) [N-Acetylglucosamine, N-acetylglucosamine] | 5.0 | 63 | 0.91 | 40 | 5.7 | 68 | 0.51 | 50 | 4.2 | 55 | – | – | – | – | – | –
9 | CO[C@H]1O[C@H](CO)[C@H](O)[C@H](O[C@H]2O[C@H](CO)[C@H](O)[C@H](O)[C@H]2O)[C@H]1O [methyl-α-D-galactopyranosyl-α1,3-galactopyranoside] | – | – | – | – | – | – | – | – | – | – | – | – | 7.17 | 308 | 8.80 | 528
10 | CO[C@@H]1O[C@H](CO)[C@H](O)[C@H](O[C@@H]2O[C@H](CO)[C@H](O)[C@H](O)[C@H]2O)[C@H]1O [methyl-β-D-galactopyranosyl-β1,3-galactopyranoside] | – | – | – | – | – | – | – | – | – | – | – | – | 5.17 | 222 | 5.52 | 331
